Assay results reported in patent US8476439B2, “Pyridine classical cannabinoid compounds and related methods of use” (priority 2008, dated 2013).

Test system: glioblastoma brain cancer cell line LN-229
Assay: Cytotoxicity assay (CCK8 viability)
Assay type: cell-based
Conditions: Homo sapiens, cytotoxicity against LN-229, 18 hours incubation, 1% FBS media
Method: Cytoxocity assay: Cells were seeded on a 96 well polystyrene plate in full serum media at a density of 75,000 cells per milliliter, 100 μL per well. Plates were incubated at 37° C. and 5% CO2 for 24 hours to allow cell attachment. Drug solutions were prepared in DMSO at 100× concentration and mixed 1:100 in 1% FBS media to yield the desired concentration. Drug-media mixtures were vortexed immediately prior to administration to cells. Full serum media was removed and replaced with drug-media mixtures and incubated for 18 hours. 10 μL of Cell Counting Kit 8 (CCK8, Dojindo# CK04-11) was added to each well to colormetrically assess viability. After 2-4 hours of incubation with the CCK8 dye, absorbance was read at 450 nm by a BioTek Synergy 2 plate reader.
The cytotoxicity of selected compounds against the glioblastoma brain cancer cell line LN-229 is depicted in Table 1.

SMILES | EC50 [µM]
CCCCCCC(C)(C)c1cc2c(c(O)n1)[C@@H]1C[C@H](C)CC[C@@H]1C(C)(C)O2 [Compound 6b, (6aS,9R,10aR)-6,6,9-trimethyl-3-(2-methyloctan-2-yl)-6a,7,8,9,10,10a-hexahydro-6H-isochromeno[4,3-c]pyridin-1-ol] | 2.43
CCCCCCC(C)(C)c1cc2c(c(O)n1)[C@H]1C[C@@H](C)CC[C@H]1C(C)(C)O2 [Compound 6c, (6aR, 9S, 10aS)-6,6,9-trimethyl-3-(2-methyloctan-2-yl)-6a,7,8,9,10,10a-hexahydro-6H-isochromeno[4,3-c]pyridin-1-ol] | 1.83
